For 15 compounds, Activity results are on record in ChEMBL document CHEMBL3044837, “Synthesis and pharmacological investigation of novel 2-substituted-3-carboxamido-4H-pyrimidobenzothiazole derivatives as a new class of H1-antihistaminic agent” (Med Chem Res, 2013).

This series relates to Mus musculus. Briefly: Sedative activity in Mus musculus Swiss albino (mouse) at 10 mg/kg, ip after 1 hr relative to control. On the set-up: dose 10 mg/kg, route intraperitoneal. The format is organism-based. The following applies: in vivo.

Each structure is given as a SMILES string.

Regarding `NC(=O)c1c(N2CCCCC2)nc2sc3cc(Cl)ccc3n2c1=O`, the Activity was 20.51%.

On to `NC(=O)c1c(N2CCOCC2)nc2sc3cc(Cl)ccc3n2c1=O`, for which the Activity is 23.17%.

As for `CCN1CCN(c2nc3sc4ccccc4n3c(=O)c2C(N)=O)CC1`, the Activity was 26.43%.

The compound `CCN1CCN(c2nc3sc4cc(Cl)ccc4n3c(=O)c2C(N)=O)CC1` came in with an Activity of 22.66%.

Compound `NC(=O)c1c(N2CCN(CCO)CC2)nc2sc3cc(Cl)ccc3n2c1=O` showed an Activity of 30.37%.

With `NC(=O)c1c(N2CCOCC2)nc2sc3ccccc3n2c1=O`, the Activity worked out at 24.32%.

For the compound `CN1CCN(c2nc3sc4cc(Cl)ccc4n3c(=O)c2C(N)=O)CC1`, the Activity was determined as 32.92%.

Turning to `NC(=O)c1c(N2CCCCC2)nc2sc3ccccc3n2c1=O`, the Activity is 23.61%.

For the compound `CN(C)CCNc1nc2sc3cc(Cl)ccc3n2c(=O)c1C(N)=O`, the Activity is given as 25.97%.

Turning to `CN1CCN(c2nc3sc4ccccc4n3c(=O)c2C(N)=O)CC1`, the Activity stood at 35.21%.

In turn, `NC(=O)c1c(N2CCCC2)nc2sc3ccccc3n2c1=O` showed an Activity of 33.33%.

In turn, `NC(=O)c1c(N2CCCC2)nc2sc3cc(Cl)ccc3n2c1=O` showed an Activity of 38.27%.

`NC(=O)c1c(N2CCN(CCO)CC2)nc2sc3ccccc3n2c1=O` had an Activity of 36.47%.

Turning to `CN(C)CCNc1nc2sc3ccccc3n2c(=O)c1C(N)=O`, the Activity is on record as 36.25%.

In turn, `CN(C)CCC(c1ccc(Cl)cc1)c1ccccn1.O=C(O)/C=C\C(=O)O` (stereo not given) [CHLORPHENIRAMINE MALEATE] registered an Activity of 69.01%.
